{"source": "paper PMC4673899", "about": "(Analytical biochemistry, 2010)", "molecules": {"B1": {"name": "H3(6-21)K9Me3 peptide (peptide, UniProt P68431 7-22, looked up)", "peptide": "TARK(Me3)STGGKAPRKQLA-NH2"}, "B2": {"name": "unlabelled H3(1-15)K9Me3 peptide (peptide, UniProt P68431 2-16, looked up)", "peptide": "ARTKQTARKSTGGKA", "modifications": "trimethyl-lysine at K9; C-terminal amide"}}, "key": {"JMJD2E [1]": {"target": "T1, JMJD2E (Homo sapiens, UniProt B2RXH2)", "T1 sequence (B2RXH2 1-337)": "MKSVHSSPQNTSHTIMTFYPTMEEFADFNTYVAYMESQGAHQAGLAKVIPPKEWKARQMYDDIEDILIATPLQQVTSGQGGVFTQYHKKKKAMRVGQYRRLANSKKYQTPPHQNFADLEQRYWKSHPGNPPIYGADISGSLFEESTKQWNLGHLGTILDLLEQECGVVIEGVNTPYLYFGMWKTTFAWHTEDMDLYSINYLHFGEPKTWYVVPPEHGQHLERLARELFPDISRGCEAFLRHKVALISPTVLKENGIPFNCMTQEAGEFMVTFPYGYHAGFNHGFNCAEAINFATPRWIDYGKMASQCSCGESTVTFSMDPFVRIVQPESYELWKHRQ", "test": "JMJD2E-peptide binding AlphaScreen assay"}, "JMJD2E [2]": {"target": "T1, JMJD2E", "details": "cited from earlier work"}, "JMJD2E [3]": {"target": "T1, JMJD2E", "details": "read-out: IC50 (FDH), cited from earlier work"}, "[4]": {"target": "histone H3K9me3 peptide (Homo sapiens) (UniProt P68431)", "test": "SPR", "details": "cited from earlier work"}, "[5]": {"target": "T2, N-terminally His-tagged catalytic domain of recombinant JMJD2E (residues 1-337) (UniProt B2RXH2 1-337)", "T2 sequence (looked up)": "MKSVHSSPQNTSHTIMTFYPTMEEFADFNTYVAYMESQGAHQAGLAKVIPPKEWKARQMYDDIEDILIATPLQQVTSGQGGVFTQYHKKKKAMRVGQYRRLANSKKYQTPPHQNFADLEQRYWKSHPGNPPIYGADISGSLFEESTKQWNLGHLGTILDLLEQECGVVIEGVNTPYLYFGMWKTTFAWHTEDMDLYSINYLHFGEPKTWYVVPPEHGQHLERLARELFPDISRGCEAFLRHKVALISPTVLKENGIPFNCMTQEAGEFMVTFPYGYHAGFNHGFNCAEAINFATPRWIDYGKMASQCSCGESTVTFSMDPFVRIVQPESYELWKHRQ", "test": "AlphaScreen or HTRF"}}, "note": "Read-outs that look alike come from different tables or passages of the source. Primed or numbered codes have the meaning given here. Ends that are not written are not given here. Me3 = trimethyl on the lysine side chain; Me3″ = trimethyl (on lysine)"}
{"molecule": "O=C(O)CCC(=O)C(=O)O", "note": "[Compound 2OG, 2-oxoglutarate]", "values": [{"measurement": "concentration at signal maximum in binding assay", "setting": "JMJD2E [1]; JMJD2E pre-incubated with 2OG prior to biotinylated-H3(1-15)K9Me3", "result": "10 to 30", "unit": "µM"}, {"measurement": "Km", "setting": "JMJD2E [2]", "result": 14, "unit": "µM"}]}
{"molecule": "O=C(O)c1ccc(C(=O)O)nc1", "note": "[Compound 4, 3,6-PDCA]", "values": [{"measurement": "IC50", "setting": "JMJD2E [3]; listed as 3,6-PDCA (4)", "result": "> 1000", "unit": "µM"}]}
{"molecule": "O=C(O)c1cccnc1C(=O)O", "note": "[Compound 2, 2,3-PDCA]", "values": [{"measurement": "IC50", "setting": "JMJD2E [3]", "result": "> 5000", "unit": "µM"}]}
{"molecule": "H3(6-21)K9Me3: histone H3 residues 6-21 peptide with tri-methyl lysine 9 (TARK(Me3″)STGGKAPRKQLA-NH2)", "values": [{"measurement": "relative JMJD2E affinity in the binding assay", "setting": "JMJD2E [1]; competition of unlabelled peptide with biotin-H3(1-15)K9Me3", "result": "higher JMJD2E affinity than H3(1-15)K9Me3"}]}
{"molecule": "JMJD2A (from UniProt O75164)", "values": [{"measurement": "Kd", "setting": "[4]", "result": 1, "unit": "µM"}]}
{"molecule": "O=C(O)c1ccc(C(=O)O)nc1", "note": "[Compound 3, 2,5-PDCA]", "values": [{"measurement": "IC50", "setting": "JMJD2E [3]; listed as 2,5-PDCA (3)", "result": 180, "unit": "µM"}]}
{"molecule": "B1", "values": [{"measurement": "binding result", "setting": "[5]", "result": "binds"}]}
{"molecule": "B2", "values": [{"measurement": "IC50", "setting": "[5]", "result": 1.2, "unit": "µM"}]}
